Test: xn = mol fraction of the nth substance listed

CC[NH3+].O=[N+]([O-])[O-] + C[N+](=O)[O-]
298.15 K, 101 kPa
Conditions | electrical conductivity [S/m] | viscosity [mPa·s]
x1 = 0.0084 | 0.0847 | 0.671
x2 = 0 | 2.27 | 37.5
x2 = 0.5996 | 2.42 | 5.95

CCCCCCCCCCCCOS(=O)(=O)[O-].[Na+] + Cc1ncc(C[n+]2csc(CCO)c2C)c(N)n1.Cl.[Cl-] + O
electrical conductivity [S/m], 101 kPa
Conditions | 288.15 K | 298.15 K | 308.15 K | 318.15 K
x1 = 7.35e-06, x2 = 0 | 0.00102 | 0.00389 | 0.00521 | 0.0057
x1 = 1.463e-05, x2 = 0 | 0.00278 | 0.00675 | 0.0087 | 0.00954
x1 = 2.184e-05, x2 = 0 | 0.00515 | 0.00896 | 0.012 | 0.0133
x1 = 2.898e-05, x2 = 0 | 0.00708 | 0.0117 | 0.0152 | 0.017
x1 = 3.604e-05, x2 = 0 | 0.00931 | 0.0145 | 0.0186 | 0.0208
x1 = 4.303e-05, x2 = 0 | 0.0116 | 0.0171 | 0.0219 | 0.0244
x1 = 4.997e-05, x2 = 0 | 0.0139 | 0.0198 | 0.0251 | 0.0279
x1 = 5.683e-05, x2 = 0 | 0.0162 | 0.0224 | 0.0283 | 0.0313
x1 = 6.362e-05, x2 = 0 | 0.0186 | 0.0244 | 0.0315 | 0.0347
x1 = 7.036e-05, x2 = 0 | 0.0202 | 0.027 | 0.0345 | 0.0381
x1 = 7.703e-05, x2 = 0 | 0.0225 | 0.0296 | 0.0375 | 0.0414
x1 = 8.364e-05, x2 = 0 | 0.0247 | 0.0321 | 0.0405 | 0.0448
x1 = 9.018e-05, x2 = 0 | 0.0269 | 0.0347 | 0.0432 | 0.0481
x1 = 9.658e-05, x2 = 0 | 0.0286 | 0.0371 | 0.0461 | 0.0513
x1 = 0.0001031, x2 = 0 | 0.0307 | 0.0395 | 0.0491 | 0.0543
x1 = 0.0001094, x2 = 0 | 0.0328 | 0.0419 | 0.0517 | 0.0573
x1 = 0.0001157, x2 = 0 | 0.035 | 0.0442 | 0.0544 | 0.0602
x1 = 0.000122, x2 = 0 | 0.037 | 0.0466 | 0.0568 | 0.0632
x1 = 0.0001281, x2 = 0 | 0.039 | 0.0488 | 0.0602 | 0.0659
x1 = 0.0001342, x2 = 0 | 0.0411 | 0.0509 | 0.0625 | 0.0687
x1 = 0.0001404, x2 = 0 | 0.0425 | 0.0524 | 0.0647 | 0.0711
x1 = 0.0001465, x2 = 0 | 0.0432 | 0.0543 | 0.0667 | 0.0734
x1 = 0.0001524, x2 = 0 | 0.0444 | 0.0559 | 0.0685 | 0.0755
x1 = 0.0001584, x2 = 0 | 0.0452 | 0.0571 | 0.0701 | 0.0774
x1 = 0.0001641, x2 = 0 | 0.0462 | 0.0582 | 0.0716 | 0.079
x1 = 0.0001699, x2 = 0 | 0.0469 | 0.0592 | 0.0729 | 0.0805
x1 = 0.0001757, x2 = 0 | 0.0478 | 0.0601 | 0.0742 | 0.0819
x1 = 0.0001814, x2 = 0 | 0.0487 | 0.0609 | 0.0753 | 0.0832
x1 = 0.000187, x2 = 0 | 0.0495 | 0.0617 | 0.0764 | 0.0845
x1 = 0.0001928, x2 = 0 | 0.0501 | 0.0626 | 0.0775 | 0.0857
x1 = 0.0001982, x2 = 0 | 0.0507 | 0.0634 | 0.0785 | 0.0868
x1 = 0.0002038, x2 = 0 | 0.0513 | 0.0641 | 0.0796 | 0.0879
x1 = 0.0002092, x2 = 0 | 0.0517 | 0.0648 | 0.0805 | 0.089
x1 = 0.0002147, x2 = 0 | 0.0521 | 0.0654 | 0.0815 | 0.0902
x1 = 0.00022, x2 = 0 | 0.0527 | 0.066 | 0.0824 | 0.0912
x1 = 0.0002254, x2 = 0 | 0.0532 | 0.0666 | 0.0834 | 0.0924
x1 = 0.0002306, x2 = 0 | 0.0537 | 0.0673 | 0.0843 | 0.0936
x1 = 0.0002358, x2 = 0 | 0.0542 | 0.068 | 0.0852 | 0.0946
x1 = 0.0002411, x2 = 0 | 0.0548 | 0.0686 | 0.0861 | 0.0956
x1 = 0.0002463, x2 = 0 | 0.0554 | 0.0693 | 0.087 | 0.0966

c1ccsc1 + N#C[C-](C#N)C#N.OCCC[n+]1ccccc1
101 kPa, x2 = 0
Conditions | viscosity [mPa·s]
293.15 K | 0.653
298.15 K | 0.615
303.15 K | 0.58
308.15 K | 0.545
313.15 K | 0.518
318.15 K | 0.491
323.15 K | 0.464
328.15 K | 0.441
333.15 K | 0.42
338.15 K | 0.4
343.15 K | 0.382
348.15 K | 0.364

c1ccsc1 + N#C[C-](C#N)C#N.OCC[n+]1ccccc1
101 kPa, x2 = 0
Conditions | viscosity [mPa·s]
303.15 K | 0.58
333.15 K | 0.42
348.15 K | 0.364

CCCCCCCC[n+]1ccccc1.[Br-] + NCC(=O)NCC(=O)O + O
electrical conductivity [S/m], 100 kPa
Conditions | 288.15 K | 293.15 K | 298.15 K | 303.15 K | 308.15 K
x2 = 0.0008948, x1 = 0.00597 | – | – | – | – | 2.18
x2 = 0.0008948, x1 = 0.005972 | – | – | 1.72 | 1.92 | –
x2 = 0.0008948, x1 = 0.005974 | 1.34 | 1.52 | – | – | –
x2 = 0.000895, x1 = 0.005737 | – | – | – | – | 2.13
x2 = 0.000895, x1 = 0.005739 | – | 1.48 | 1.68 | 1.88 | –
x2 = 0.000895, x1 = 0.005741 | 1.31 | – | – | – | –
x2 = 0.0008953, x1 = 0.005443 | – | – | 1.62 | 1.82 | 2.05
x2 = 0.0008953, x1 = 0.005445 | 1.27 | 1.44 | – | – | –
x2 = 0.0008956, x1 = 0.005122 | – | – | 1.57 | 1.76 | 1.98
x2 = 0.0008956, x1 = 0.005124 | 1.22 | 1.39 | – | – | –
x2 = 0.0008959, x1 = 0.004789 | – | 1.34 | 1.51 | 1.69 | 1.88
x2 = 0.0008959, x1 = 0.00479 | 1.18 | – | – | – | –
x2 = 0.0008962, x1 = 0.004442 | 1.14 | 1.29 | 1.45 | 1.62 | 1.79
x2 = 0.0008965, x1 = 0.004038 | – | – | – | – | 1.69
x2 = 0.0008965, x1 = 0.004039 | 1.07 | 1.21 | 1.36 | 1.52 | –
x2 = 0.000897, x1 = 0.00359 | – | – | 1.26 | 1.4 | 1.55
x2 = 0.000897, x1 = 0.003592 | 0.984 | 1.12 | – | – | –
x2 = 0.0008974, x1 = 0.003106 | 0.886 | 1 | 1.13 | 1.26 | 1.39
x2 = 0.0008979, x1 = 0.002563 | 0.768 | 0.87 | 0.975 | 1.09 | 1.19
x2 = 0.0008984, x1 = 0.002015 | 0.637 | 0.721 | 0.807 | 0.898 | 0.973
x2 = 0.0008987, x1 = 0.001634 | 0.54 | 0.61 | 0.682 | 0.758 | 0.823
x2 = 0.0008991, x1 = 0.001218 | 0.424 | 0.477 | 0.533 | 0.592 | 0.657
x2 = 0.0008995, x1 = 0.0007371 | 0.298 | 0.332 | 0.369 | 0.406 | 0.467
x2 = 0.001787, x1 = 0.006313 | – | – | – | – | 2.23
x2 = 0.001787, x1 = 0.006315 | – | – | 1.76 | 1.95 | –
x2 = 0.001787, x1 = 0.006317 | 1.36 | 1.53 | – | – | –
x2 = 0.001788, x1 = 0.005888 | – | – | 1.69 | 1.87 | 2.13
x2 = 0.001788, x1 = 0.00589 | 1.31 | 1.47 | – | – | –
x2 = 0.001789, x1 = 0.005263 | – | – | – | 1.76 | 1.98
x2 = 0.001789, x1 = 0.005265 | 1.23 | 1.38 | 1.57 | – | –
x2 = 0.001789, x1 = 0.005589 | – | – | 1.63 | 1.81 | 2.05
x2 = 0.001789, x1 = 0.005591 | 1.27 | 1.43 | – | – | –
x2 = 0.00179, x1 = 0.004922 | – | – | 1.51 | 1.69 | 1.88
x2 = 0.00179, x1 = 0.004924 | 1.18 | 1.33 | – | – | –
x2 = 0.001791, x1 = 0.004115 | – | 1.2 | 1.35 | 1.51 | 1.68
x2 = 0.001791, x1 = 0.004116 | 1.06 | – | – | – | –
x2 = 0.001791, x1 = 0.004536 | – | – | – | – | 1.78
x2 = 0.001791, x1 = 0.004537 | 1.13 | 1.27 | 1.44 | 1.61 | –
x2 = 0.001792, x1 = 0.003673 | – | – | – | 1.4 | 1.54
x2 = 0.001792, x1 = 0.003675 | 0.984 | 1.12 | 1.26 | – | –
x2 = 0.001793, x1 = 0.003161 | 0.886 | 0.997 | 1.12 | 1.25 | 1.38
x2 = 0.001794, x1 = 0.002599 | 0.766 | 0.862 | 0.967 | 1.08 | 1.18
x2 = 0.001795, x1 = 0.001992 | 0.62 | 0.699 | 0.783 | 0.87 | 0.87
x2 = 0.001796, x1 = 0.001587 | 0.515 | 0.581 | 0.65 | 0.724 | 0.724
x2 = 0.001797, x1 = 0.0007376 | 0.292 | 0.326 | 0.36 | 0.389 | 0.389
x2 = 0.001797, x1 = 0.001185 | 0.405 | 0.456 | 0.51 | 0.566 | 0.566

— the CheMixHub ionic liquid set
